Experimental data as given in US20170152245A1 (National Taiwan University, priority 2015, published 2017).

System: human platelet suspension
Assay: U46619-induced platelet aggregation in human platelet suspension
Assay type: cell-based
Details: Homo sapiens, Platelet, U46619-induced aggregation, platelet suspension; read-out: P.S(U46619) IC50
Experimental: Human platelet suspension (PS) was prepared according to the method described previously. Briefly, blood sample, freshly obtained from healthy volunteers who had taken no medications during the preceding 2 weeks, was treated with acid citrate/dextrose (ACD) in a volume ratio of 9:1. After centrifugation at 120 g, 25° C. for 9 min, platelet-rich plasma was transferred into another plastic tube and incubated with heparin (6.4 U/ml) as well as prostaglandin E1 (1 μM). Platelets were spun down by centrifugation at 500 g, 25° C. for 8 min and subsequently washed two times with Tyrode solution (NaH2PO4 0.4 mM; NaCl 136.9 mM; KCl […]; NaHCO3 11.9 mM; CaCl2 2 mM; MgCl2 2.1 mM; glucose 11.1 mM; BSA 3.5 mg/ml; pH 7.35-7.4). The washed platelets were finally suspended in Tyrode's solution and the platelet count was adjusted to 3.75×10^8 platelets/ml. For platelet-rich plasma (PRP) preparation, whole blood was anticoagulated with 1/10 vol of sodium citrate (3.8%, w/v) and centrifuged at 150 g, 25° C. for 9 min.
Platelet aggregation was measured turbidimetrically with a Lumi-aggregometer (Payton Scientific) at 37° C. under stirring condition (900 rpm). Platelet suspensions were prewarmed to 37° C. for 2 min in a silicone-treated glass cuvette. Nstpbp5185 was added 3 min before the addition of platelet-aggregation inducers. The extent of platelet aggregation was determined by recording the increase of light transmission relative to that of control (maximal aggregation, as 100%) for 6 min after the addition of inducer. The final volume and platelet count for measuring platelet aggregation were 500 μl and 3×10^8/ml, respectively.

SMILES	IC50 [µM]
Cc1ccc(-c2nc3cc(Cl)ccc3n2Cc2ccc(F)cc2)o1 [Example 46b, 5chloro-1-(4-fluorobenzyl)-2-(5-methyl-2-furyl)benzimidazole]	9.59
Cc1ccc(-c2nc3ccccc3n2Cc2ccncc2)o1 [Example 24, 1-(4-Picoyl)-2-(5-methyl-2-furyl)benzimidazole]	14.6
COc1ccc2nc(-c3ccc(C)o3)n(Cc3cccc(C)c3)c2c1 [Example 27a, 6-methoxy-1-(3-methylbenzyl)-2-(5-methyl-2-furyl)benzimidazole]	19.2
Cc1ccc(-c2nc3ccc(F)cc3n2Cc2ccccc2F)o1 [Example 38b, 6-Fluoro-1-(2-fluorobenzyl)-2-(5-methyl-2-furyl)benzimidazole]	2.7
COc1ccc2[nH]c(-c3ccc(C)o3)nc2c1 [Example 25, 5-Methoxy-2-(5-methyl-2-furyl)benzimidazole]	44.5
Cc1ccc(-c2nc3cc(Cl)ccc3n2Cc2cccc(F)c2)o1 [Example 47a, 5-chloro-1-(3-fluorobenzyl)-2-(5-methyl-2-furyl)benzimidazole]	5.55
Cc1ccc(-c2nc3ccc(Cl)cc3n2Cc2ccc(Cl)cc2)o1 [Example 43a, 6-chloro-1-(4-chlorobenzyl)-2-(5-methyl-2-furyl) benzimidazole]	36.5
Cc1ccc(-c2nc3ccc(C(=O)c4ccccc4)cc3n2Cc2cccc(F)c2)o1 [Example 79, 6-Benzoyl-1-(3-fluorobenzyl)-2-(5-methyl-2-furyl)benzimidazole]	> 50
COc1ccc(Cn2c(-c3ccc(C)o3)nc3ccc(F)cc32)cc1 [Example 34b, 6-fluoro-1-(4-methoxybenzyl)-2-(5-methyl-2-furyl)benzimidazole]	32.2
Cc1ccc(-c2nc3cc(Cl)ccc3n2Cc2ccccc2)o1 [Example 42b, 1-benzyl-5-chloro-2-(5-methyl-2-furyl)benzimidazole]	4.43
Cc1ccc(-c2nc3cc(Cl)c(Cl)cc3n2Cc2ccc([N+](=O)[O-])cc2)o1 [Example 55, 5,6-dichloro-1-(4-nitrobenzyl)-2-(5-methyl-2-furyl)benzimidazole]	> 50
Cc1ccc(-c2nc3ccc(F)cc3n2Cc2cccc(F)c2)o1 [Example 37b, 6-fluoro-1-(3-fluorobenzyl)-2-(5-methyl-2-furyl)benzimidazole]	1.17
Cc1ccc(-c2nc3ccc(C(=O)c4ccccc4)cc3n2Cc2ccc(Cl)cc2)o1 [Example 73, 6-Benzoyl-1-(4-chlorobenzyl)-2-(5-methyl-2-furyl)benzimidazole]	> 50
COc1ccc2c(c1)nc(-c1ccc(C)o1)n2Cc1cccc(C)c1 [Example 27b, 5-methoxy-1-(3-methylbenzyl)-2-(5-methyl-2-furyl)benzimidazole]	26.9
Cc1ccc(-c2nc3ccc(Cl)cc3n2Cc2cccc(F)c2)o1 [Example 47b, 6-chloro-1-(3-fluorobenzyl)-2-(5-methyl-2-furyl)benzimidazole]	4.42
Cc1ccc(-c2nc3ccc(C(=O)c4ccccc4)cc3n2Cc2cccc(Cl)c2)o1 [Example 74, 6-benzoyl-1-(3-chlorobenzyl)-2-(5-methyl-2-furyl)benzimidazole]	19.2
Cc1ccc(-c2nc3ccccc3n2Cc2ccccc2F)o1 [Example 13, 1-(o-Fluorobenzyl)-2-(5-methyl-2-furyl)benzimidazole]	13.1
Cc1ccc(-c2nc3cc(Cl)c(Cl)cc3n2Cc2ccc(Cl)cc2)o1 [Example 58, 5,6-Dichloro-1-(4-chlorobenzyl)-2-(5-methyl-2-furyl)benzimidazole]	9.56
Cc1ccc(Cn2c(-c3ccc(C)o3)nc3ccc(Cl)cc32)cc1 [Example 51a, 6-chloro-1-(4-methylbenzyl)-2-(5-methyl-2-furyl)benzimidazole]	53.4
Cc1ccc(-c2nc3cc(Cl)c(Cl)cc3n2Cc2cccc(F)c2)o1 [Example 64, 5,6-dichloro-1-(3-fluorobenzyl)-2-(5-methyl-2-furyl)benzimidazole]	1.74
